Experimental data taken from patent US8436011B2, “Pyridinopyridinone derivatives, preparation thereof and therapeutic use thereof” (Sanofi, priority 2008, dated 2013).
Where a name gives a salt, the structure may show the parent alone.

tested on: not given; assay: not given; settings: not given

Structure (SMILES) | melting point [°C]
CCn1c(N)c(C(=O)NC)c(=O)c2ccc(-c3ccc(CC(=O)NC4CC4)cc3)nc21 [compound 10, 2-amino-7-{4-[2-(cyclopropylamino)-2-oxoethyl]phenyl}-1-ethyl-N-methyl-4-oxo-1,4-dihydro-1,8-naphthyridine-3-carboxamide] | > 260
CCn1c(N)c(C(=O)NC)c(=O)c2ccc(-c3ccc(CC(=O)Nc4ccccn4)nc3)nc21 [compound 21, 2-amino-1-ethyl-N-methyl-4-oxo-7-{6-[2-oxo-2-(pyrid-2-ylamino)-ethyl]pyrid-3-yl}-1,4-dihydro-1,8-naphthyridine-3-carboxamide] | 266
CCn1c(N)c(C(=O)NC)c(=O)c2ccc(-c3ccc(CC(=O)Nc4cnccn4)cc3)nc21 [compound 13, 2-amino-1-ethyl-N-methyl-4-oxo-7-{4-[2-oxo-2-(pyrazin-2-ylamino)ethyl]-phenyl}-1,4-dihydro-1,8-naphthyridine-3-carboxamide] | 290
CCn1c(N)c(C(=O)NC)c(=O)c2ccc(-c3ccc(CC(=O)Nc4ccncc4)cc3)nc21 (as salt: HCl) | 250
CCN1CCOCC1CNC(=O)C(C)c1ccc(-c2ccc3c(=O)c(C(=O)NC)c(N)n(CC)c3n2)cc1 (centres unmarked) (as salt: HCl) [compound 25, 2-amino-1-ethyl-7-[4-(2-{[(4-ethylmorpholin-3-yl)methyl]amino}-1-methyl-2-oxoethyl)phenyl]-N-methyl-4-oxo-1,4-dihydro-1,8-naphthyridine-3-carboxamide] | 190
CCn1c(N)c(C(=O)NC)c(=O)c2ccc(-c3ccc(CC(=O)NC[C@H]4CCCN4CCF)cc3)nc21 (as salt: hydrochloride) [compound 27, 2-amino-1-ethyl-7-{4-[2-({[(2R)-1-(2-fluoroethyl)pyrrolidin-2-yl]methyl}-amino)-2-oxoethyl]phenyl}-N-methyl-4-oxo-1,4-dihydro-1,8-naphthyridine-3-carboxamide] | 180
CCn1c(N)c(C(=O)NC)c(=O)c2ccc(-c3ccc(C(C)C(=O)Nc4ccccn4)cc3)nc21 (centres unmarked) (as salt: HCl) [compound 20, 2-amino-1-ethyl-N-methyl-7-{4-[1-methyl-2-oxo-2-(pyrid-2-ylamino)ethyl]-phenyl}-4-oxo-1,4-dihydro-1,8-naphthyridine-3-carboxamide] | 188
CCn1c(N)c(C(=O)NC)c(=O)c2ccc(-c3ccc(CC(=O)NCCc4ccccn4)cc3)nc21 (as salt: HCl) | 248
CCn1c(N)c(C(=O)NC)c(=O)c2ccc(-c3ccc(CC(=O)Nc4cccnc4)cc3)nc21 (as salt: HCl) [compound 3, 2-amino-1-ethyl-N-methyl-4-oxo-7-{4-[2-oxo-2-(pyrid-3-ylamino)ethyl]-phenyl}-1,4-dihydro-1,8-naphthyridine-3-carboxamide] | 270

Results, then the compound that gave them:

melting point [°C] | Structure (SMILES)
228 | CCN1CCCC1CNC(=O)Cc1ccc(-c2ccc3c(=O)c(C(=O)NC)c(N)n(CC)c3n2)cc1Cl (centres unmarked) (as salt: HCl) [compound 57, 2-amino-7-[3-chloro-4-(2-{[(1-ethylpyrrolidin-2-yl)methyl]amino}-2-oxoethyl)phenyl]-1-ethyl-N-methyl-4-oxo-1,4-dihydro-1,8-naphthyridine-3-carboxamide]
196 | CCn1c(N)c(C(=O)NC)c(=O)c2ccc(-c3ccc(CC(=O)NCCCN4CCOCC4)cc3)nc21 (as salt: HCl) [compound 38, 2-amino-1-ethyl-N-methyl-7-(4-{2-[(3-morpholin-4-ylpropyl)amino]-2-oxoethyl}phenyl)-4-oxo-1,4-dihydro-1,8-naphthyridine-3-carboxamide]
213 | CCN1CCCC1CNC(=O)Cc1cccc(-c2ccc3c(=O)c(C(=O)NC)c(N)n(CC)c3n2)c1 (centres unmarked) (as salt: HCl) [compound 62, 2-amino-1-ethyl-7-[3-(2-{[(1-ethylpyrrolidin-2-yl)methyl]amino}-2-oxoethyl)phenyl]-N-methyl-4-oxo-1,4-dihydro-1,8-naphthyridine-3-carboxamide]
253 | CCN1CCC[C@@H]1CNC(=O)Cc1ccc(-c2ccc3c(=O)c(C(=O)NC)c(N)n(CC)c3n2)c(F)c1 [compound 56, 2-amino-1-ethyl-7-{4-[2-({[(2R)-1-ethylpyrrolidin-2-yl]methyl}amino)-2-oxoethyl]-2-fluorophenyl}-N-methyl-4-oxo-1,4-dihydro-1,8-naphthyridine-3-carboxamide]
222 | CCn1c(N)c(C(=O)NC)c(=O)c2ccc(-c3ccc(CC(=O)NCCc4cccnc4)cc3)nc21 (as salt: HCl) [compound 37, 2-amino-1-ethyl-N-methyl-4-oxo-7-(4-{2-oxo-2-[(2-pyrid-3-ylethyl)amino]-ethyl}phenyl)-1,4-dihydro-1,8-naphthyridine-3-carboxamide]
250 | CCn1c(N)c(C(=O)NC)c(=O)c2ccc(-c3ccc(CC(=O)NCC4COCCN4C4CC4)cc3)nc21 (centres unmarked) (as salt: HCl) [compound 33, 2-amino-7-[4-(2-{[(4-cyclopropylmorpholin-3-yl)methyl]amino}-2-oxoethyl)phenyl]-1-ethyl-N-methyl-4-oxo-1,4-dihydro-1,8-naphthyridine-3-carboxamide]
277 | CCN1CCCC1CNC(=O)Cc1ccc(-c2ccc3c(=O)c(C(=O)NC)c(N)n(CC)c3n2)cc1C (centres unmarked) [compound 59, 2-amino-7-[3-methyl-4-(2-{[(1-ethylpyrrolidin-2-yl)methyl]amino}-2-oxoethyl)phenyl]-1-ethyl-N-methyl-4-oxo-1,4-dihydro-1,8-naphthyridine-3-carboxamide]
218 | CCN1CCCC1CNC(=O)CCc1ccc(-c2ccc3c(=O)c(C(=O)NC)c(N)n(CC)c3n2)cc1 (centres unmarked) [compound 46, 2-amino-1-ethyl-7-[4-(3-{[(1-ethylpyrrolidin-2-yl)methyl]amino}-3-oxopropyl)phenyl]-N-methyl-4-oxo-1,4-dihydro-1,8-naphthyridine-3-carboxamide]
214 | CCN1CCC[C@@H]1CNC(=O)Cc1nc(-c2ccc3c(=O)c(C(=O)NC)c(N)n(CC)c3n2)cs1 [compound 55, 2-amino-1-ethyl-7-{2-[2-({[(2R)-1-ethylpyrrolidin-2-yl]methyl}amino)-2-oxoethyl]-1,3-thiazol-4-yl}-N-methyl-4-oxo-1,4-dihydro-1,8-naphthyridine-3-carboxamide]
228 | CCN1CCCC1CNC(=O)Cc1csc(-c2ccc3c(=O)c(C(=O)NC)c(N)n(CC)c3n2)n1 (centres unmarked) (as salt: HCl) [compound 43, 2-amino-1-ethyl-7-[4-(2-{[(1-ethylpyrrolidin-2-yl)methyl]amino}-2-oxoethyl)-1,3-thiazol-2-yl]-N-methyl-4-oxo-1,4-dihydro-1,8-naphthyridine-3-carboxamide]
260 | CCn1c(N)c(C(=O)NC)c(=O)c2ccc(-c3ccc(CC(=O)NC[C@H]4CCCN4CC(F)F)cn3)nc21 (as salt: HCl) [compound 34, 2-amino-7-{5-[2-({[(2R)-1-(2,2-difluoroethyl)pyrrolidin-2-yl]methyl}amino)-2-oxoethyl]pyrid-2-yl}-1-ethyl-N-methyl-4-oxo-1,4-dihydro-1,8-naphthyridine-3-carboxamide]

molecular target: T1, fusion protein Tel/PDGF-R (PDGF-Rβ kinase domain) in HEK cells (Homo sapiens, UniProt P09619); assay: Ex vivo activity: plasma of orally treated mice tested on PDGF-R autophosphorylation in HEK Tel/PDGF-R cells (ELISA); set-up: species or system female Balb/c mice; settings: HEK293, mouse, po, 30 mg/kg po, plasma collected at 15 min; read-out: % inhibition of autophosphorylation of PDGFR tyrosine kinase in HEK cells
T1 construct: the transmembrane and intracellular part of the PDGF-Rβ receptor; N-terminal part of the Tel transcription factor (ETV6); expressed in transfected cells; host or cells: HEK cells (transient transfection); the other entry of the earlier key: ETV6 (P41212, Transcription factor ETV6)
T1 sequence (P09619 with tags, fused parts or gaps): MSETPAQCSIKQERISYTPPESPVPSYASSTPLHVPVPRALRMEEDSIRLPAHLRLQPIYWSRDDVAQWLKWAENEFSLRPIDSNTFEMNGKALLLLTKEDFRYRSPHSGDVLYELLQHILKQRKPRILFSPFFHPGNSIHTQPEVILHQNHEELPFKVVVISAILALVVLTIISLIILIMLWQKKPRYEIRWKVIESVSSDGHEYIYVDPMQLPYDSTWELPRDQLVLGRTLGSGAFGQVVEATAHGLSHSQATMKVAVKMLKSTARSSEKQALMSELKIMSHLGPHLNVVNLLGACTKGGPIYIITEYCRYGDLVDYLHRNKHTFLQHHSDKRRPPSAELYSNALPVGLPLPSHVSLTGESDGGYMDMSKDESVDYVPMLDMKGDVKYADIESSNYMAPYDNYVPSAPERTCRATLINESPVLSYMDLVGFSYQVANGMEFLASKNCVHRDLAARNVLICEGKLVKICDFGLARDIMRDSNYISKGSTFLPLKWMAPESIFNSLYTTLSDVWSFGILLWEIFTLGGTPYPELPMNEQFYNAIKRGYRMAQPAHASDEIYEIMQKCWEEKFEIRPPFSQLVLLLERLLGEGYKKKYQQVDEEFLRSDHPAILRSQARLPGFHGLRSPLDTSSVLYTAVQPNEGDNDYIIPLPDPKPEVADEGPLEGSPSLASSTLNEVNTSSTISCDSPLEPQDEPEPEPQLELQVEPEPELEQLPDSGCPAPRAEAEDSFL
Description: Ex vivo activity of the compounds of the invention was measured. These compounds are thus administered orally to female Balb/c mice at a dose of 10, 30 or 100 mg/kg in suspension or in solution in a vehicle such as methylcellulose/Tween and the inhibition of the tyrosine kinase activity is measured in vitro in a cell test, using plasma collected at 15 minutes, 1 hour and 4 hours.
1) Protocol for Administration of the Products to the Mice
The products are prepared in a mortar with 0.5% Tween 80 and 0.6% methylcellulose qs final volume. Depending on the case, preparations of different vehicles may be used: water, mixture of labrasol solutol 5% glucose-water. The suspended or dissolved products are administered by gavage (10 ml/kg) to female Balb/c mice 8 to 15 weeks old.
The animals are then collected at the time given by the protocol (15 min, 1 hour, 4 hours, 16 hours).
The animals are anaesthetized by intraperitoneal injection (10 ml/kg) of a ketamine (0.1 g/kg)-xylazine (20 mg/kg) mixture. […] The blood sample is collected from the vein or the artery using a dry syringe and needle. The blood is immediately transferred into heparin lithium tubes (BD microtainer). Centrifugation for 3 minutes at 12 000 rpm allows recovery of the plasma, on which the biochemical test may be performed after storage by freezing at −20° C.
2) Preparation of the HEK Tel/PDGF-R Cells and Measurement of the Phosphorylation of PDGF-R
In order to detect the ex vivo activity of the products using the mouse plasmas, the HEK cells are transiently transfected beforehand with an expression vector coding for the fusion protein Tel/PDGF-R (fusion protein described previously). After 24 hours of transfection, the cells are deprived of serum overnight and then incubated for 30 minutes with the animal plasmas treated with the products of the invention. The cells are then lysed in RIPA buffer, and detection of the phosphorylation of PDGF-Rβ is then performed via the ELISA technique, using a commercial kit (R&D Systems, DYC1767). The results are expressed as a percentage of inhibition of the autophosphorylation.
In this test of measurement of the ex vivo activity, the effect of the compounds of the invention is quantified by the percentage of inhibition of phosphorylation of the kinase domain of the PDGF-Rβ receptor in HEK cells, induced by the inhibitory activity of the product present in the plasma of the treated animals, as described in the following table: […]

inhibition at 30 mg/kg [%] | Structure (SMILES)
55 | CCn1c(N)c(C(=O)NC)c(=O)c2ccc(-c3ccc(CC(=O)NCCN4CCOCC4)cc3)nc21 [compound 18, 2-amino-1-ethyl-N-methyl-7-(4-{2-[(2-morpholin-4-ylethyl)amino]-2-oxoethyl}phenyl)-4-oxo-1,4-dihydro-1,8-naphthyridine-3-carboxamide]
73 | CCn1c(N)c(C(=O)NC)c(=O)c2ccc(-c3ccc(CC(=O)NC[C@H]4CCCN4CC(F)F)cn3)nc21 [compound 34, 2-amino-7-{5-[2-({[(2R)-1-(2,2-difluoroethyl)pyrrolidin-2-yl]methyl}amino)-2-oxoethyl]pyrid-2-yl}-1-ethyl-N-methyl-4-oxo-1,4-dihydro-1,8-naphthyridine-3-carboxamide]

same assay, conditions: HEK293, mouse, po, 30 mg/kg po, plasma collected at 1 h; read-out: % inhibition of autophosphorylation of PDGFR tyrosine kinase in HEK cells

inhibition at 30 mg/kg [%] | Structure (SMILES)
62 | CCn1c(N)c(C(=O)NC)c(=O)c2ccc(-c3ccc(CC(=O)NCCN4CCOCC4)cc3)nc21 [compound 18, 2-amino-1-ethyl-N-methyl-7-(4-{2-[(2-morpholin-4-ylethyl)amino]-2-oxoethyl}phenyl)-4-oxo-1,4-dihydro-1,8-naphthyridine-3-carboxamide]
64 | CCn1c(N)c(C(=O)NC)c(=O)c2ccc(-c3ccc(CC(=O)NC[C@H]4CCCN4CC(F)F)cn3)nc21 [compound 34, 2-amino-7-{5-[2-({[(2R)-1-(2,2-difluoroethyl)pyrrolidin-2-yl]methyl}amino)-2-oxoethyl]pyrid-2-yl}-1-ethyl-N-methyl-4-oxo-1,4-dihydro-1,8-naphthyridine-3-carboxamide]

same assay, conditions: HEK293, mouse, po, 30 mg/kg po, plasma collected at 4 h; read-out: % inhibition of autophosphorylation of PDGFR tyrosine kinase in HEK cells

inhibition at 30 mg/kg [%] | Structure (SMILES)
17 | CCn1c(N)c(C(=O)NC)c(=O)c2ccc(-c3ccc(CC(=O)NCCN4CCOCC4)cc3)nc21 [compound 18, 2-amino-1-ethyl-N-methyl-7-(4-{2-[(2-morpholin-4-ylethyl)amino]-2-oxoethyl}phenyl)-4-oxo-1,4-dihydro-1,8-naphthyridine-3-carboxamide]
58 | CCn1c(N)c(C(=O)NC)c(=O)c2ccc(-c3ccc(CC(=O)NC[C@H]4CCCN4CC(F)F)cn3)nc21 [compound 34, 2-amino-7-{5-[2-({[(2R)-1-(2,2-difluoroethyl)pyrrolidin-2-yl]methyl}amino)-2-oxoethyl]pyrid-2-yl}-1-ethyl-N-methyl-4-oxo-1,4-dihydro-1,8-naphthyridine-3-carboxamide]
